From ChEMBL document CHEMBL1201862, “PubChem BioAssay data set” (2004)
Calls of active or inactive are those of the source. Rule as the data show it, for most assays here: actives have a measured EC50 and inactives only a lower limit.

Test system: not listed separately
Assay: cytotoxicity toward NIH3T3 fibroblasts, dose response, counter-screen, cell-based, ATP luminescence, mouse fibroblasts (AID 2010);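 also: cells exposed to compound for about 90 hours before reading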
Type: functional
Details: not given

Which EC50 does the source give for `FC(F)(F)c1cnc(Sc2nc3nccc(-c4ccc(Cl)cc4)n3n2)c(Cl)c1` here?
The EC50 was > 30 µM (not active).

With `Cc1ccc(OCCN2CCN(c3nc(NCc4ccco4)c4ccccc4n3)CC2)cc1` as the molecule, how does the EC50 read?
The EC50 was 6.18 µM (active).

Biological target: T1, Replicative DNA helicase DnaB (Mycobacterium tuberculosis, UniProt P9WMR3)
T1 sequence (P9WMR3 whole entry): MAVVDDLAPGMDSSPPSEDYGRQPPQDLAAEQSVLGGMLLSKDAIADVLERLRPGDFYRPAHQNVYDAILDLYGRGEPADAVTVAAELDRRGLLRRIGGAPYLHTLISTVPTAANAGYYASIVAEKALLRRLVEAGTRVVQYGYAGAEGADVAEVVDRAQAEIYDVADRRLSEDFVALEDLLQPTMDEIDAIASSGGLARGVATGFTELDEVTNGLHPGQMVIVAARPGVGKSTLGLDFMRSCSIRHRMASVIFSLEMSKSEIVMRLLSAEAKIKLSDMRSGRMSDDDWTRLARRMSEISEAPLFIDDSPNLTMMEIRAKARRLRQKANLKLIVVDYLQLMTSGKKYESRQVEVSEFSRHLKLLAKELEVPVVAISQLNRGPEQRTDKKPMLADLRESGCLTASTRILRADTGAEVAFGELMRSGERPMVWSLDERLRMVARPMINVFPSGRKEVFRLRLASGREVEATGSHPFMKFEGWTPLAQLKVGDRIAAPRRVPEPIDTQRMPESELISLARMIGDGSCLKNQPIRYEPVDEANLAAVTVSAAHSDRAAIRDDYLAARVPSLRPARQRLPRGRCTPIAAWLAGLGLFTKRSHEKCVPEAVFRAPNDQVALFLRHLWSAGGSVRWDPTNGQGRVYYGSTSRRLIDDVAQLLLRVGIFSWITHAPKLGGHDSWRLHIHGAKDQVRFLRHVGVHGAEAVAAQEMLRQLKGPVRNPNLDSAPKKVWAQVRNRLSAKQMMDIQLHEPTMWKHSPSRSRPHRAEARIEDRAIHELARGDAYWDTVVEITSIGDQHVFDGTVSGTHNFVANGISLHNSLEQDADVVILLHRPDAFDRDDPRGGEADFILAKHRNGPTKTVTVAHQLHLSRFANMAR
Assay: DnaB intein splicing inhibitors, dose response, biochemical, cell-free fluorescence (AID 449749)
Type: functional
Details: not given

Which AC50 does the source give for `Cc1[nH]n(C(C)(C)C)c(=O)c1Sc1ccccc1` here?
Its AC50 is 19.1 µM (active).

For `COc1ccc2nc(SCC(=O)NN)cc(C)c2c1`, which AC50 is on record?
The AC50 was 50.5 µM (active).

With `O=C(CCNc1cccc(F)c1)c1cccc([N+](=O)[O-])c1` as the molecule, how does the AC50 read?
The AC50 was > 380 µM (inactive).

For `O=C(CSC1=NCCS1)Nc1nc(-c2ccccc2)cs1`, which AC50 is on record?
Its AC50 is > 380 µM (inconclusive).

With `O=C(CNC(=O)C1COc2ccccc2O1)N/N=C\c1ccccc1Cl` (centres undefined) as the molecule, how does the AC50 read?
The AC50 was 189 µM (active).

For `Cc1ccc(N2C(=O)C(Cl)=C(N3CCOCC3)C2=O)c(C)c1`, which AC50 is on record?
Its AC50 is 16 µM (active).

Which AC50 does the source give for `Cc1noc(C)c1CSCC(=O)Oc1ccc(N(C)S(=O)(=O)c2ccc(Cl)cc2)cc1` here?
The AC50 was 2.34 µM (active).

Test system: not listed separately
Assay: Luminescence Cell-Based Dose Retest to Confirm Inhibitors of Cancer Stem Cells. [Related pubchem assays (depositor defined):AID2717, AID2721]
Type: functional
Details: Homo sapiens

Which AC50 does the source give for `COc1ccc(NC(=O)c2[nH]cnc2C(=O)N[C@@H](CC(C)C)C(=O)OC(C)(C)C)cc1` here?
Its AC50 is 7.16 µM (active).

Which AC50 does the source give for `NC(=O)CC(NC(=O)Cc1cccc2ccccc12)c1ccc(NCc2ccc(F)c(F)c2)c([N+](=O)[O-])c1` (centres undefined) here?
Its AC50 is 11.2 µM (active).

With `Cc1ccc(OCCN2CCN(c3nc(NCc4ccco4)c4ccccc4n3)CC2)cc1` as the molecule, how does the AC50 read?
Its AC50 is 4.7 µM (active).

For `Oc1ccc(Nc2nc(-c3ccccc3O)nc3ccccc23)cc1`, which AC50 is on record?
The AC50 was 2.71 µM (active).

Which AC50 does the source give for `CCC1(C)Cc2c(sc3nc(SC)n(Cc4ccccc4)c(=O)c23)CO1` (centres undefined) here?
The AC50 was 0.259 µM (active).

For `CCOC(=O)c1nn(-c2ccc(F)cc2)c(-c2ccccc2)c1C(=O)c1ccccc1`, which AC50 is on record?
The AC50 was 5.46 µM (active).

For `COc1cccc(NP(=O)(Oc2ccc(Cl)cc2)Oc2ccc(Cl)cc2)c1`, which AC50 is on record?
The AC50 was 3.11 µM (active).

Which AC50 does the source give for `COc1ccccc1/C=C/C=N/n1c(S)nnc1-c1[nH]nc2c1CCC2` here?
The AC50 was 13.7 µM (active).

Biological target: T2, Protein RecA (Mycobacterium tuberculosis, UniProt P9WHJ3)
T2 sequence (P9WHJ3 whole entry): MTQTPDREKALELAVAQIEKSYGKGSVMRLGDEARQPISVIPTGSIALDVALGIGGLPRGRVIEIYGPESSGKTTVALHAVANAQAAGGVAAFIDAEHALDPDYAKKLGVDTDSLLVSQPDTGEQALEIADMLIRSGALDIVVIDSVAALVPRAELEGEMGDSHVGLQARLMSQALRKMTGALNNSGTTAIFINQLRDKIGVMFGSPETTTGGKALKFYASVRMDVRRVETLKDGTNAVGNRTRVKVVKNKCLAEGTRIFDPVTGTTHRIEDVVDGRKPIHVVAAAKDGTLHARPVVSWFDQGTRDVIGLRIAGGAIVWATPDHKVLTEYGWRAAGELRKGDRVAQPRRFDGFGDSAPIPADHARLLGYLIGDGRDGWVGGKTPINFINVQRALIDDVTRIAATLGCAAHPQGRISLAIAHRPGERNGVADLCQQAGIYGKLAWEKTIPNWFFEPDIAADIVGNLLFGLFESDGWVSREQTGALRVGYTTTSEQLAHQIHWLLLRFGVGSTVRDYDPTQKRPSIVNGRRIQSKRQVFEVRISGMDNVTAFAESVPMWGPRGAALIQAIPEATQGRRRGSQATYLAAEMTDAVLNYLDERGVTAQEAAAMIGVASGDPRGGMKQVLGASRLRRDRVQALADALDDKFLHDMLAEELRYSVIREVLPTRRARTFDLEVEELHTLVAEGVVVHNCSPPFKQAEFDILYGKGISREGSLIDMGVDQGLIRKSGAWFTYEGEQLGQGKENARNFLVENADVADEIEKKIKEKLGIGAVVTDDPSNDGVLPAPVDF
Assay: Fluorescence Cell-Free Homogeneous Dose Retest to Identify Inhibitors of RecA-Intein Splicing Activity. [Related pubchem assays (depositor defined):AID2097, AID2223, AID489010, AID492950]
Type: functional
Details: not given

Which EC50 does the source give for `Cc1[nH]n(C(C)(C)C)c(=O)c1Sc1ccccc1` here?
Its EC50 is 2.02 µM (active).

For `COc1ccc2nc(SCC(=O)NN)cc(C)c2c1`, which EC50 is on record?
Its EC50 is 10.6 µM (active).

Which EC50 does the source give for `O=C(CCNc1cccc(F)c1)c1cccc([N+](=O)[O-])c1` here?
Its EC50 is > 380 µM (inactive).

Which EC50 does the source give for `O=C(CSC1=NCCS1)Nc1nc(-c2ccccc2)cs1` here?
Its EC50 is 7.45 µM (active).

Which EC50 does the source give for `O=C(CNC(=O)C1COc2ccccc2O1)N/N=C\c1ccccc1Cl` (centres undefined) here?
The EC50 was > 380 µM (inactive).

For `Cc1ccc(N2C(=O)C(Cl)=C(N3CCOCC3)C2=O)c(C)c1`, which EC50 is on record?
Its EC50 is 4.19 µM (active).

Which EC50 does the source give for `Cc1noc(C)c1CSCC(=O)Oc1ccc(N(C)S(=O)(=O)c2ccc(Cl)cc2)cc1` here?
The EC50 was 13.8 µM (active).

Biological target: T3, Heat shock factor protein 1 (Mus musculus, UniProt P38532)
T3 sequence (P38532 whole entry): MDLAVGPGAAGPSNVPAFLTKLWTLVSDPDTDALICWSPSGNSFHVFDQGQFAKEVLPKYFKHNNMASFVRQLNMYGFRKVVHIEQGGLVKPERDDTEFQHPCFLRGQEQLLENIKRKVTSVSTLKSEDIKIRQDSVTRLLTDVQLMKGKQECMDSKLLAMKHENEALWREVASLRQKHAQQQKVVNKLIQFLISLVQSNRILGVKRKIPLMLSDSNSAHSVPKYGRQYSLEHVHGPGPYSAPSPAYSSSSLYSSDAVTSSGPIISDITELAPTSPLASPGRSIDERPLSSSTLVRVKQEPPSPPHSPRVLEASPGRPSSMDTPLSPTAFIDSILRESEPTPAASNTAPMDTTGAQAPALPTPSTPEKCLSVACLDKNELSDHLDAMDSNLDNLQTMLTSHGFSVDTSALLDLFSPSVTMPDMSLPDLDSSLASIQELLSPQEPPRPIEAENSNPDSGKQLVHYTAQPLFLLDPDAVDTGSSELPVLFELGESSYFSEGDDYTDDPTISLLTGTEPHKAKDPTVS
Assay: HSF1 potentiators in luciferase reporter cells, confirmation, cell-based, NIH3T3, luminescence, dose retest (AID 435004);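 also: stress induced by proteasome inhibitor MG132 added 30 min after compound; luciferase reporter driven by HSF1 response element in NIH3T3 cells; actives raise luminescence as potentiators of the MG132 stress response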
Type: functional
Details: not given

Which EC50 does the source give for `FC(F)(F)c1cnc(Sc2nc3nccc(-c4ccc(Cl)cc4)n3n2)c(Cl)c1` here?
Its EC50 is > 260 µM (inactive).

Test system: not listed separately
Assay: inhibitors of intracellular T. cruzi replication, confirmation, NIH3T3 host cells, beta-gal luminescence (AID 2044);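 also: intracellular parasites grown in NIH/3T3 mouse fibroblasts as host cells; luminescent beta-galactosidase reporter signal from transgenic T. cruzi replicating inside host cells; inhibitors lower the luminescence signal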
Type: functional, cell-based
Details: not given

For `FC(F)(F)c1cnc(Sc2nc3nccc(-c4ccc(Cl)cc4)n3n2)c(Cl)c1`, which EC50 is on record?
Its EC50 is 1.72 µM (active).

For `Cc1ccc(OCCN2CCN(c3nc(NCc4ccco4)c4ccccc4n3)CC2)cc1`, which EC50 is on record?
The EC50 was 1.35 µM (active).

Biological target: T4, Streptokinase A (Streptococcus pyogenes serotype M1, UniProt P10520)
T4 sequence (P10520 whole entry): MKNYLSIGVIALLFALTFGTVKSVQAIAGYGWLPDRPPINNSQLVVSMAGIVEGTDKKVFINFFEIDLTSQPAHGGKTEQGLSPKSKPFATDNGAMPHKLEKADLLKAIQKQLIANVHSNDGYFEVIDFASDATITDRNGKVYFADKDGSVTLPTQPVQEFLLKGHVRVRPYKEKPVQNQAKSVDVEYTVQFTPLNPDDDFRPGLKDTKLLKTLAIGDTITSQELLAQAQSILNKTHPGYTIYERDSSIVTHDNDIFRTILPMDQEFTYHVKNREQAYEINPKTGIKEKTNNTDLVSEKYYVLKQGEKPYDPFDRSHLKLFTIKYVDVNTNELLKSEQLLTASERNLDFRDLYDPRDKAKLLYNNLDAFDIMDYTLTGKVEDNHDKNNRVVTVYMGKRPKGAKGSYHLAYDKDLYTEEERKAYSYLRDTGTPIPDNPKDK
Assay: S. pyogenes streptokinase expression inhibitors, potency, dose response, plasminogen activation absorbance, OD405 (AID 1914);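 also: secreted streptokinase activity via plasminogen activation per viability signal from cell pellet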
Type: functional, Streptococcus pyogenes M1 GAS
Details: not given

Which EC50 does the source give for `COc1ccc(NC(=O)c2[nH]cnc2C(=O)N[C@@H](CC(C)C)C(=O)OC(C)(C)C)cc1` here?
The EC50 was > 150 µM (not active).

With `COc1cccc(NP(=O)(Oc2ccc(Cl)cc2)Oc2ccc(Cl)cc2)c1` as the molecule, how does the EC50 read?
Its EC50 is 4.68 µM (active).

Test system: Streptococcus sp. 'group A'
Assay: growth inhibition of control SK(-) GAS strain, dose response, counter-screen for streptokinase expression inhibitor project, luminescence, kanamycin, BacTiterGlo, confirmation (AID 1900)
Type: functional, organism-based
Details: not given

For `COc1ccc(NC(=O)c2[nH]cnc2C(=O)N[C@@H](CC(C)C)C(=O)OC(C)(C)C)cc1`, which EC50 is on record?
The EC50 was 4.08 µM (active).

For `COc1cccc(NP(=O)(Oc2ccc(Cl)cc2)Oc2ccc(Cl)cc2)c1`, which EC50 is on record?
Its EC50 is 6.17 µM (active).

Biological target: T5, Cytochrome P450 1A2 (Homo sapiens, UniProt P05177);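 also: PubChem cytochrome P450 panel assay, CYP1A2 panel member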
T5 sequence (P05177 whole entry): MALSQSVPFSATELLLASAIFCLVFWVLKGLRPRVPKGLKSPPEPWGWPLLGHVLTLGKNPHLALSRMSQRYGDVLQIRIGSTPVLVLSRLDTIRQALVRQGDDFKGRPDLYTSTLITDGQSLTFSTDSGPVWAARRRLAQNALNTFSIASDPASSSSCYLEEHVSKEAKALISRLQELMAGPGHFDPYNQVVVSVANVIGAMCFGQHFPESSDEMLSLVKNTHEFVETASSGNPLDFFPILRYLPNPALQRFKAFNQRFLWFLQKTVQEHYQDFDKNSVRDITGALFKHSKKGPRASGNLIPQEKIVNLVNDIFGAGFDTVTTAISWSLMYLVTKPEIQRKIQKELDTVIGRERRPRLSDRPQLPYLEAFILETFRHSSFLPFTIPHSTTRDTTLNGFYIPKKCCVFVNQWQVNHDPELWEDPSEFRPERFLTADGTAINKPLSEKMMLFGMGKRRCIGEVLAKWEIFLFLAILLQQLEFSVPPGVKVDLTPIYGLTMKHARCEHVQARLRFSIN
Details: not given

With `COc1ccc2nc(SCC(=O)NN)cc(C)c2c1` as the molecule, how does the AC50 read?
Its AC50 is 0.398 µM (inconclusive).

Test system: Streptococcus
Assay: Group A Streptococcus viability loss, dose response, counter-screen for streptokinase expression inhibitor project, luminescence, BacTiterGlo (AID 1915);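 also: potency for reduction of bacterial viability or growth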
Type: functional, organism-based
Details: not given

Which EC50 does the source give for `COc1ccc(NC(=O)c2[nH]cnc2C(=O)N[C@@H](CC(C)C)C(=O)OC(C)(C)C)cc1` here?
Its EC50 is 11.6 µM (active).

For `COc1cccc(NP(=O)(Oc2ccc(Cl)cc2)Oc2ccc(Cl)cc2)c1`, which EC50 is on record?
The EC50 was 11.2 µM (active).
